Data on one compound can be found in patent US20220370556A1, “Method of Treatment” (Volution Immuno Pharmaceuticals SA, priority 2019, published 2022).

Test [1] has as its target Human BLT1 G-protein coupled receptor. Conditions: high affinity receptor, ref. [12]; cited from earlier work.
In test [2] the target is Human BLT2 G-protein coupled receptor. Conditions: ref. [13]; cited from earlier work.
Test [3] has as its target T1, nomacopan (EV576, OmCI protein, Coversin), Ornithodoros moubata, mature form, amino acids 19 to 168 of SEQ ID NO: 2 (SEQ ID NO: 4) (Ornithodoros moubata, UniProt Q5YD59).
T1 sequence (Q5YD59 19-168): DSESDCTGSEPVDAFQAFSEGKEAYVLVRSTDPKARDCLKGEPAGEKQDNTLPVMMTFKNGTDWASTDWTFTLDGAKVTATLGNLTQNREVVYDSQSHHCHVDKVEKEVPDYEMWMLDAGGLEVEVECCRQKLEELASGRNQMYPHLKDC
As to the kind of experiment: Fluorescence titration of LTB4 binding to nomacopan. Conditions: 100 nM nomacopan in PBS, 20° C., excitation 280 nm, emission 340 nm. The text has this: The ability of a nomacopan-type protein to bind LTB4 may be determined by standard in vitro assays known in the art, for example by means of a competitive ELISA between nomacopan and anti-LTB4 antibody competing for binding to labelled LTB4, by isothermal titration calorimetry or by fluorescence titration. […] For example, binding activity for LTB4 (Caymen Chemicals, Ann Arbor, Mich., USA) in phosphate buffered saline (PBS) can be quantified in a spectrofluorimeter e.g. a LS 50 B spectrofluorimeter (Perkin-Elmer, Norwalk, Conn., USA). This may be carried out by may be carried out as follows:
Purified 100 nM solutions of nomacopan, in 2 mL PBS were applied in a quartz cuvette (10 mm path length; Hellma, Mühlheim, Germany) equipped with a magnetic stirrer.
Temperature was adjusted to 20° C. and, after equilibrium was reached, protein Tyr/Trp fluorescence was excited at 280 nm (slit width: 15 nm). The fluorescence emission was measured at 340 nm (slit width: 16 nm) corresponding to the emission maximum. A ligand solution of 30 μM LTB4 in PBS was added step-wise, up to a maximal volume of 20 μL (1% of the whole sample volume), and after 30 s incubation steady state fluorescence was measured. […]

`CCCCC/C=C\C[C@@H](O)/C=C/C=C/C=C\[C@@H](O)CCCC(=O)O` [LTB4, Leukotriene B4]: the Kd (usually the equilibrium constant for the complex coming apart) in test [1] was 0.39 to 1.5 nM; in test [2] it was 23 nM; in test [3], 0.1 to 0.3 nM.
